Reference: US4578400A, “Therapeutic composition and method for treatment of cardiovascular diseases” (priority 1982, dated 1986)

System: ventricular fibrillation after coronary artery ligation
Test: Antiarrhythmic effects on myocardial infarction (coronary ligation)
Format: in vivo, dogs
Details: for Threshold level for inducing ventricular fibrillation, 30 min after ligation: before ligation = 100, control 41
Excerpt: Antiarrhythmic effects on myocardial infarction
The method described by Shinohara (Jap. Circul. J., 32, 1269-1281, 1968) was used. Dogs were divided into groups of 5 animals, anesthetized with intravenous pentobarbital and were thoracotomized under artificial respiration, and a platinum bipolar electrode was inserted on the wall of the right atrium. Then the sinus node was crushed and the animals were subjected to pacing (2.5 Hz, 3 msec, 3.5-8 V) with an electronic stimulator. The left anterior descending coronary artery was doubly ligated at a site 2 cm away from its origin (A. S. Harris, Circulation, 1, 1318, 1950). Then 5--HDA--Na and lidocaine were injected into the femoral vein of the respective dogs. Using an electrode inserted in an ischemic zone in the left ventricle, the animals were given 15 to 20 successive electrical shocks before the ligation and 30 minutes after the ligation and administration. The threshold level necessary for inducing ventricular fibrillation was determined for each group of animals and shown in Table 4, with the values before the ligation taken as 100.

SMILES: CCCCCC(O)CCCC(=O)[O-].[Na+] (stereo not shown)
- Threshold level for inducing ventricular fibrillation, 30 min after ligation (0.3 mg/kg i.v.): 67
- Threshold level for inducing ventricular fibrillation, 30 min after ligation (1.0 mg/kg i.v., *P < 0.05): 70
- Threshold level for inducing ventricular fibrillation, 30 min after ligation (3.0 mg/kg i.v., *P < 0.05): 79
- threshold level for inducing ventricular fibrillation (in words) (after coronary ligation, i.v.): increased in a dose-dependent manner
